# Molecular target: T1, CTSB protease (Homo sapiens, UniProt P07858)
# T1 construct: purchased Sino Biological Inc. 10483-H08H-10
# Assay: CTSB protease activity inhibition in vitro (z-Arg-Arg-AMC substrate)
# Format: biochemical
# Conditions: for Inhibition rate (%) of the CTSB protease activity / inhibition at 1000 µM: 1 mM of each compound; for inhibition at 1000 µM: read-out: Inhibition rate (%) of the CTSB protease activity
Compound,Enhancement of the activity of the CTSB protease,EC50 (read-out: EC50 (activation of the CTSB protease)) [nM],Inhibition rate (%) of the CTSB protease activity [%],inhibition at 1000 µM [%],Inhibition of the activity of CTSB (in words)
Nc1nc2ncc(CNc3ccc(C(=O)N[C@@H](CCC(=O)O)C(=O)O)cc3)nc2c(=O)[nH]1 [Folic acid],more than 4 folds,1260,,,
"O=c1cc(-c2ccc(O)cc2)oc2cc(O)cc(O)c12 [Apigenin, 5,7-Dihydroxy-2-(4-hydroxyphenyl)-4H-1-benzopyran-4-one]",,,70.93,65 to 85,
NH2-Arg-Leu-Ala-COOH—Se,,,86.93,,
O=C(OC[C@H]1O[C@@H](OC(=O)c2cc(O)c(O)c(OC(=O)c3cc(O)c(O)c(O)c3)c2)[C@H](OC(=O)c2cc(O)c(O)c(OC(=O)c3cc(O)c(O)c(O)c3)c2)[C@@H](OC(=O)c2cc(O)c(O)c(OC(=O)c3cc(O)c(O)c(O)c3)c2)[C@@H]1OC(=O)c1cc(O)c(O)c(OC(=O)c2cc(O)c(O)c(O)c2)c1)c1cc(O)c(O)c(OC(=O)c2cc(O)c(O)c(O)c2)c1 [Tannic acid],,,,69.3,
"O=c1c(O[C@@H]2O[C@H](CO)[C@@H](O)[C@H](O)[C@H]2O)c(-c2ccc(O)c(O)c2)oc2cc(O)cc(O)c12 [Isoquercitrin, 2-(3,4-Dihydroxyphenyl)-5,7-dihydroxy-3-[(2S,3R,4S,5S,6R)-3,4,5-trihydroxy-6-(hydroxymethyl)oxan-2-yl]oxychromen-4-one]",,,68.98,65 to 85,inhibit the activity of CTSB
